This passage reports melting point results from PMC7169845, “Synthesis and Bioactivity of Phthalimide Analogs as Potential Drugs to Treat Schistosomiasis, a Neglected Disease of Poverty” (Pharmaceuticals, 2020).

`Cc1ccc2c(c1)C(=O)N(C(CC(C)C)c1nc3ccccc3n1Cc1cn(-c3ccccc3)nn1)C2=O` (stereo not drawn) [6g, 5-Methyl-2-(3-methyl-1-(1-((1-phenyl-1H-1,2,3-triazol-4-yl)methyl)-1H-benzo[d]imidazol-2-yl)butyl)isoindoline-1,3-dione]: the melting point (in general, the temperature, or range, at which the solid turns liquid) fell in the range of 67 to 69 °C.
As for `CC(c1nc2ccccc2n1Cc1c[nH]nn1)N1C(=O)c2ccccc2C1=O` (stereo not drawn) [6g’, 2-(1-(1-((1H-1,2,3-Triazol-4-yl)methyl)-1H-benzo[d]imidazol-2-yl)ethyl)isoindoline-1,3-dione], the figure is 97 to 99 °C; as for `Cc1ccc2c(c1)C(=O)N(C(CC(C)C)c1nc3ccccc3n1Cc1cn(-c3ccccc3F)nn1)C2=O` (stereo not drawn) [6i, 2-(1-(1-((1-(2-Fluorophenyl)-1H-1,2,3-triazol-4-yl)methyl)-1H-benzo[d]imidazol-2-yl)-3-methylbutyl)-5-methylisoindoline-1,3-dione], 138 to 140 °C; as for `CCC(C)C(c1nc2ccccc2n1Cc1cn(-c2c(F)c(F)c(F)c(F)c2F)nn1)N1C(=O)c2ccc(C)cc2C1=O` (stereo not drawn) [6s, 5-Methyl-2-(2-methyl-1-(1-((1-(perfluorophenyl)-1H-1,2,3-triazol-4-yl)methyl)-1H-benzo[d]imidazol-2-yl)butyl)isoindoline-1,3-dione], 196 to 198 °C.
Compound `Cc1ccc(-n2cc(Cn3c(C(C)N4C(=O)c5ccc(C)cc5C4=O)nc4ccccc43)nn2)cc1` (stereo not drawn) [6i’, 5-Methyl-2-(1-(1-((1-(p-tolyl)-1H-1,2,3-triazol-4-yl)methyl)-1H-benzo[d]imidazol-2-yl)ethyl)isoindoline-1,3-dione] returned a melting point of 216 to 218 °C.
To `Cc1ccc(-n2cc(Cn3c(C(CC(C)C)N4C(=O)c5ccc(C)cc5C4=O)nc4ccccc43)nn2)cc1` (stereo not drawn) [6b, 5-Methyl-2-(3-methyl-1-(1-((1-(p-tolyl)-1H-1,2,3-triazol-4-yl)methyl)-1H-benzo[d]imidazol-2-yl)butyl)isoindoline-1,3-dione] belongs 160 to 162 °C; to `Cc1ccc2c(c1)C(=O)N(C(CC(C)C)c1nc3ccccc3n1Cc1cn(-c3ccc(F)cc3F)nn1)C2=O` (stereo not drawn) [6j, 2-(1-(1-((1-(2,4-Difluorophenyl)-1H-1,2,3-triazol-4-yl)methyl)-1H-benzo[d]imidazol-2-yl)-3-methylbutyl)-5-methylisoindoline-1,3-dione], 72 to 74 °C; to `Cc1ccc2c(c1)C(=O)N(C(CC(C)C)c1nc3ccccc3n1Cc1cn(-c3c(F)cccc3F)nn1)C2=O` (stereo not drawn) [6k, 2-(1-(1-((1-(2,6-Difluorophenyl)-1H-1,2,3-triazol-4-yl)methyl)-1H-benzo[d]imidazol-2-yl)-3-methylbutyl)-5-methylisoindoline-1,3-dione], 71 to 73 °C.
To `CC(C)C(c1nc2ccccc2n1Cc1cn(-c2c(F)cccc2F)nn1)N1C(=O)c2ccccc2C1=O` (stereo not drawn) [6u’, 2-(1-(1-((1-(2,6-Difluorophenyl)-1H-1,2,3-triazol-4-yl)methyl)-1H-benzo[d]imidazol-2-yl)-2-methylpropyl)isoindoline-1,3-dione] belongs 91 to 93 °C; to `CC(c1nc2ccccc2n1Cc1cn(-c2ccc(F)cc2F)nn1)N1C(=O)c2ccccc2C1=O` (stereo not drawn) [6d’, 2-(1-(1-((1-(2,4-Difluorophenyl)-1H-1,2,3-triazol-4-yl)methyl)-1H-benzo[d]imidazol-2-yl)ethyl)isoindoline-1,3-dione], 195 to 197 °C.
As for `CC(c1nc2ccccc2n1Cc1cn(-c2c(F)c(F)c(F)c(F)c2F)nn1)N1C(=O)c2ccccc2C1=O` (stereo not drawn) [6b’, 2-(1-(1-((1-(Perfluorophenyl)-1H-1,2,3-triazol-4-yl)methyl)-1H-benzo[d]imidazol-2-yl)ethyl)isoindoline-1,3-dione], the figure is 215 to 217 °C.
`Cc1ccc2c(c1)C(=O)N(C(C)c1nc3ccccc3n1Cc1cn(Cc3ccccc3)nn1)C2=O` (stereo not drawn) [6m’, 2-(1-(1-((1-Benzyl-1H-1,2,3-triazol-4-yl)methyl)-1H-benzo[d]imidazol-2-yl)ethyl)-5-methylisoindoline-1,3-dione] returned a melting point of 142 to 144 °C.
Compound `CC(C)C(c1nc2ccccc2n1Cc1cn(-c2c(F)c(F)c(F)c(F)c2F)nn1)N1C(=O)c2ccccc2C1=O` (stereo not drawn) [6r’, 2-(2-Methyl-1-(1-((1-(perfluorophenyl)-1H-1,2,3-triazol-4-yl)methyl)-1H-benzo[d]imidazol-2-yl)propyl)isoindoline-1,3-dione] came in with a melting point of 170 to 172 °C.
Compound `Cc1ccc2c(c1)C(=O)N(C(CC(C)C)c1nc3ccccc3n1Cc1c[nH]nn1)C2=O` (stereo not drawn) [6c, 2-(1-(1-((1H-1,2,3-Triazol-4-yl)methyl)-1H-benzo[d]imidazol-2-yl)-3-methylbutyl)-5-methylisoindoline-1,3-dione] came in with a melting point of 150 to 152 °C.
As for `CCC(C)C(c1nc2ccccc2n1Cc1cn(-c2ccc(F)cc2F)nn1)N1C(=O)c2ccc(C)cc2C1=O` (stereo not drawn) [6r, 2-(1-(1-((1-(2,4-Difluorophenyl)-1H-1,2,3-triazol-4-yl)methyl)-1H-benzo[d]imidazol-2-yl)-2-methylbutyl)-5-methylisoindoline-1,3-dione], the figure is 89 to 91 °C; as for `Cc1ccc2c(c1)C(=O)N(C(CC(C)C)c1nc3ccccc3n1Cc1cn(-c3ccc(F)cc3)nn1)C2=O` (stereo not drawn) [6a, 2-(1-(1-((1-(4-Fluorophenyl)-1H-1,2,3-triazol-4-yl)methyl)-1H-benzo[d]imidazol-2-yl)-3-methylbutyl)-5-methylisoindoline-1,3-dione], 208 to 210 °C; as for `Cc1ccc2c(c1)C(=O)N(C(CC(C)C)c1nc3ccccc3n1Cc1cn(Cc3ccccc3)nn1)C2=O` (stereo not drawn) [6f, 2-(1-(1-((1-Benzyl-1H-1,2,3-triazol-4-yl)methyl)-1H-benzo[d]imidazol-2-yl)-3-methylbutyl)-5-methylisoindoline-1,3-dione], 142 to 144 °C.
To `CC(C)C(c1nc2ccccc2n1Cc1cn(-c2ccc(F)cc2F)nn1)N1C(=O)c2ccccc2C1=O` (stereo not drawn) [6t’, 2-(1-(1-((1-(2,4-Difluorophenyl)-1H-1,2,3-triazol-4-yl)methyl)-1H-benzo[d]imidazol-2-yl)-2-methylpropyl)isoindoline-1,3-dione] belongs 100 to 102 °C; to `CC(c1nc2ccccc2n1Cc1cn(-c2c(F)cccc2F)nn1)N1C(=O)c2ccccc2C1=O` (stereo not drawn) [6f’, 2-(1-(1-((1-(2,6-Difluorophenyl)-1H-1,2,3-triazol-4-yl)methyl)-1H-benzo[d]imidazol-2-yl)ethyl)isoindoline-1,3-dione], 94 to 96 °C; to `Cc1ccc2c(c1)C(=O)N(C(CC(C)C)c1nc3ccccc3n1Cc1cn(-c3c(F)c(F)c(F)c(F)c3F)nn1)C2=O` (stereo not drawn) [6d, 5-Methyl-2-(3-methyl-1-(1-((1-(perfluorophenyl)-1H-1,2,3-triazol-4-yl)methyl)-1H-benzo[d]imidazol-2-yl)butyl)isoindoline-1,3-dione], 128 to 130 °C.
To `Cc1ccc2c(c1)C(=O)N(C(CC(C)C)c1nc3ccccc3n1Cc1cn(-c3ccc(C(F)(F)F)cc3)nn1)C2=O` (stereo not drawn) [6e, 5-Methyl-2-(3-methyl-1-(1-((1-(4-(trifluoromethyl)phenyl)-1H-1,2,3-triazol-4-yl)methyl)-1H-benzo[d]imidazol-2-yl)butyl)isoindoline-1,3-dione] belongs 218 to 220 °C; to `CC(C)CC(c1nc2ccccc2n1Cc1cn(-c2ccccc2F)nn1)N1C(=O)c2ccccc2C1=O` (stereo not drawn) [6n, 2-(1-(1-((1-(2-Fluorophenyl)-1H-1,2,3-triazol-4-yl)methyl)-1H-benzo[d]imidazol-2-yl)-3-methylbutyl)isoindoline-1,3-dione], 107 to 109 °C; to `Cc1ccc2c(c1)C(=O)N(C(C)c1nc3ccccc3n1Cc1cn(-c3c(F)cccc3F)nn1)C2=O` (stereo not drawn) [6q’, 2-(1-(1-((1-(2,6-Difluorophenyl)-1H-1,2,3-triazol-4-yl)methyl)-1H-benzo[d]imidazol-2-yl)ethyl)-5-methylisoindoline-1,3-dione], 166 to 168 °C.
As to `Cc1ccc2c(c1)C(=O)N(C(C)c1nc3ccccc3n1Cc1cn(-c3ccccc3F)nn1)C2=O` (stereo not drawn) [6o’, 2-(1-(1-((1-(2-Fluorophenyl)-1H-1,2,3-triazol-4-yl)methyl)-1H-benzo[d]imidazol-2-yl)ethyl)-5-methylisoindoline-1,3-dione], the melting point was in the range of 185 to 187 °C.
Turning to `CCC(C)C(c1nc2ccccc2n1Cc1cn(-c2c(F)c(F)c(F)c(F)c2F)nn1)N1C(=O)c2ccccc2C1=O` (stereo not drawn) [6t, 2-(2-Methyl-1-(1-((1-(perfluorophenyl)-1H-1,2,3-triazol-4-yl)methyl)-1H-benzo[d]imidazol-2-yl)butyl)isoindoline-1,3-dione], the melting point is 86 to 88 °C.
Turning to `Cc1ccc2c(c1)C(=O)N(C(C)c1nc3ccccc3n1Cc1cn(-c3ccc(F)cc3)nn1)C2=O` (stereo not drawn) [6h’, 2-(1-(1-((1-(4-Fluorophenyl)-1H-1,2,3-triazol-4-yl)methyl)-1H-benzo[d]imidazol-2-yl)ethyl)-5-methylisoindoline-1,3-dione], the melting point fell in the range of 222 to 224 °C.
To `Cc1ccc2c(c1)C(=O)N(C(C)c1nc3ccccc3n1Cc1cn(-c3ccc(F)cc3F)nn1)C2=O` (stereo not drawn) [6p’, 2-(1-(1-((1-(2,4-Difluorophenyl)-1H-1,2,3-triazol-4-yl)methyl)-1H-benzo[d]imidazol-2-yl)ethyl)-5-methylisoindoline-1,3-dione] belongs 206 to 208 °C.
To `CC(C)CC(c1nc2ccccc2n1Cc1cn(-c2ccc(C(F)(F)F)cc2)nn1)N1C(=O)c2ccccc2C1=O` (stereo not drawn) [6m, 2-(3-Methyl-1-(1-((1-(4-(trifluoromethyl)phenyl)-1H-1,2,3-triazol-4-yl)methyl)-1H-benzo[d]imidazol-2-yl)butyl)isoindoline-1,3-dione] belongs 216 to 218 °C.
As for `CC(C)CC(c1nc2ccccc2n1Cc1cn(-c2ccc(F)cc2F)nn1)N1C(=O)c2ccccc2C1=O` (stereo not drawn) [6o, 2-(1-(1-((1-(2,4-Difluorophenyl)-1H-1,2,3-triazol-4-yl)methyl)-1H-benzo[d]imidazol-2-yl)-3-methylbutyl)isoindoline-1,3-dione], the figure is 126 to 128 °C.
For `COc1ccc(-n2cc(Cn3c(C(CC(C)C)N4C(=O)c5ccc(C)cc5C4=O)nc4ccccc43)nn2)cc1` (stereo not drawn) [6h, 2-(1-(1-((1-(4-Methoxyphenyl)-1H-1,2,3-triazol-4-yl)methyl)-1H-benzo[d]imidazol-2-yl)-3-methylbutyl)-5-methylisoindoline-1,3-dione], the melting point was 101 to 103 °C.
